Test results published in ChEMBL document CHEMBL1681655, “Identification of a new series of non-peptidic NK3 receptor antagonists” (Bioorg Med Chem Lett, 2011).
pKi: −log10 of the molar value.

How the values were obtained:
Neuromedin-K receptor = biological target: T1, Neuromedin-K receptor (Homo sapiens, UniProt P29371); experiment: Displacement of [3H]Lu AE93103 from human NK3 receptor expressed in BHK cells; format: cell-based
T1 sequence (P29371 whole entry): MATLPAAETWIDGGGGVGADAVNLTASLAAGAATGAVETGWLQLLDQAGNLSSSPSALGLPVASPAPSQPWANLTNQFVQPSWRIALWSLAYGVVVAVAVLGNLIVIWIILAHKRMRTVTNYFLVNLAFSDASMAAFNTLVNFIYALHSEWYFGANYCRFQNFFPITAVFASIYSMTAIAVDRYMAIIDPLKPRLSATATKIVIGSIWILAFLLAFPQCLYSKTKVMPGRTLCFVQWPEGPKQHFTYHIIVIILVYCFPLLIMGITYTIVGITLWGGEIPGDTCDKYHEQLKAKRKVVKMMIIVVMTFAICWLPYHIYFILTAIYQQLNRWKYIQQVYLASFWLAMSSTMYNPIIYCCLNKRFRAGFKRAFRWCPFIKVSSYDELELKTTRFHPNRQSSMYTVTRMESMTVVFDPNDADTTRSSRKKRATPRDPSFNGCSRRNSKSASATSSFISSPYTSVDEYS

Caco-2 = experiment: Efflux ratio of permeability from […] in human Caco2 cells; format: ADME, cell-based
Liver microsomes = experiment: Intrinsic clearance in human liver microsomes; format: ADME, Microsome
[1] = Apparent permeability of the compound in human Caco2 cells; format: ADME, cell-based; conditions: caco-2

| Compound | pKi (Neuromedin-K receptor) | also measured |
| --- | --- | --- |
| CC(=O)NC1(c2ccccc2)CCN(C[C@H]2C[C@]2(C(=O)N(C)Cc2ccccc2)c2ccc(Cl)c(Cl)c2)CC1 | 7.08 |  |
| CC(=O)NC1(c2ccccc2)CCN(C[C@@H]2C[C@@]2(C(=O)N(C)Cc2ccc(F)cc2)c2ccc(Cl)c(Cl)c2)CC1 | 8.24 |  |
| CC(=O)NC1(c2ccccc2)CCN(C[C@@H]2C[C@@]2(C(=O)N(C)Cc2ccc(F)cc2)c2ccc(F)cc2)CC1 | 7.17 |  |
| CC(=O)NC1(c2ccccc2)CCN(C[C@@H]2C[C@@]2(C(=O)N(C)Cc2ccc(F)cc2)c2ccc(Cl)cc2)CC1 | 7.44 |  |
| CC(=O)NC1(c2ccccc2)CCN(C[C@@H]2C[C@@]2(C(=O)N(C)Cc2ccc(F)cc2)c2ccc(C)cc2)CC1 | 7.43 |  |
| COc1ccc([C@]2(C(=O)N(C)Cc3ccc(F)cc3)C[C@H]2CN2CCC(NC(C)=O)(c3ccccc3)CC2)cc1 | 6.46 |  |
| CC(=O)NC1(c2ccccc2)CCN(C[C@@H]2C[C@@]2(C(=O)N(C)Cc2ccc(F)cc2)c2ccc(C(F)(F)F)cc2)CC1 | 6.00 |  |
| CC(=O)NC1(c2ccccc2)CCN(C[C@@H]2C[C@@]2(C(=O)N(C)Cc2ccc(F)cc2)c2ccc(C#N)cc2)CC1 | 6.57 |  |
| CC(=O)NC1(c2ccccc2)CCN(C[C@@H]2C[C@@]2(C(=O)N(C)Cc2ccc(F)cc2)c2cccc(F)c2)CC1 | 6.85 |  |
| CC(=O)NC1(c2ccccc2)CCN(C[C@@H]2C[C@@]2(C(=O)N(C)Cc2ccc(F)cc2)c2cccc(Cl)c2)CC1 | 7.49 |  |
| CC(=O)NC1(c2ccccc2)CCN(C[C@@H]2C[C@@]2(C(=O)N(C)Cc2ccc(F)cc2)c2cccc(C)c2)CC1 | 7.40 |  |
| COc1cccc([C@]2(C(=O)N(C)Cc3ccc(F)cc3)C[C@H]2CN2CCC(NC(C)=O)(c3ccccc3)CC2)c1 | 7.25 |  |
| CC(=O)NC1(c2ccccc2)CCN(C[C@@H]2C[C@@]2(C(=O)N(C)Cc2ccc(F)cc2)c2cccc(C(F)(F)F)c2)CC1 | 6.68 |  |
| CC(=O)NC1(c2ccccc2)CCN(C[C@@H]2C[C@@]2(C(=O)N(C)Cc2ccc(F)cc2)c2cccc(C#N)c2)CC1 | 5.72 |  |
| CC(=O)NC1(c2ccccc2)CCN(C[C@@H]2C[C@@]2(C(=O)N(C)Cc2ccc(F)cc2)c2ccc(F)c(F)c2)CC1 | 7.33 |  |
| CC(=O)NC1(c2ccccc2)CCN(C[C@@H]2C[C@@]2(C(=O)N(C)Cc2ccc(F)cc2)c2cc(Cl)cc(Cl)c2)CC1 | 7.05 |  |
| CC(=O)NC1(c2ccccc2)CCN(C[C@@H]2C[C@@]2(C(=O)N(C)Cc2ccc(F)cc2)c2ccc(C)c(C)c2)CC1 | 8.14 |  |
| CC(=O)NC1(c2ccccc2)CCN(C[C@@H]2C[C@@]2(C(=O)N(C)Cc2ccc(F)cc2)c2ccc3c(c2)OCO3)CC1 | 6.85 |  |
| CC(=O)NC1(c2ccccc2)CCN(C[C@@H]2C[C@]2(C(=O)N(C)Cc2ccc(F)cc2)c2cccs2)CC1 | 7.03 |  |
| CC(=O)NC1(c2ccccc2)CCN(C[C@@H]2C[C@@]2(C(=O)N(C)Cc2ccc(F)cc2)c2ccsc2)CC1 | 6.96 |  |
| CC(=O)N(C)C1(c2ccccc2)CCN(C[C@@H]2C[C@@]2(C(=O)N(C)Cc2ccccc2)c2ccc(Cl)c(Cl)c2)CC1 | 8.38 | Ratio (Caco-2): 12; CL (Liver microsomes): 19 L/min; Papp [1]: 8 nm/s |
| CN(Cc1ccccc1)C(=O)[C@@]1(c2ccc(Cl)c(Cl)c2)C[C@H]1CN1CCC(C(=O)N2CCCCC2)(c2ccccc2)CC1 | 8.21 | Ratio (Caco-2): 17; CL (Liver microsomes): > 20 L/min; Papp [1]: 3 nm/s |
| CN(C)C(=O)NC1(c2ccccc2)CCN(C[C@@H]2C[C@@]2(C(=O)N(C)Cc2ccccc2)c2ccc(Cl)c(Cl)c2)CC1 | 8.55 | CL (Liver microsomes): > 20 L/min |
| CN(Cc1ccc(F)cc1)C(=O)[C@@]1(c2ccc(Cl)c(Cl)c2)C[C@H]1CN1CCN(CCN2CCOCC2)CC1 | 8.43 | CL (Liver microsomes): 4.3 L/min |
| CN(Cc1ccc(F)cc1)C(=O)[C@@]1(c2ccc(Cl)c(Cl)c2)C[C@H]1CN1CCN(S(=O)(=O)N2CCCC2)CC1 | 8.24 | CL (Liver microsomes): > 20 L/min |

| Compound | pKi (Neuromedin-K receptor) | also measured |
| --- | --- | --- |
| CN(Cc1ccc(F)cc1)C(=O)[C@@]1(c2ccc(Cl)c(Cl)c2)C[C@H]1CN1CCN(C(=O)CN2CCCCCC2)CC1 | 8.06 | CL (Liver microsomes): 15 L/min |
| CN(Cc1ccc(F)cc1)C(=O)[C@@]1(c2ccc(Cl)c(Cl)c2)C[C@H]1CN1CC(N2CCN(S(=O)(=O)N(C)C)CC2)C1 | 8.72 | CL (Liver microsomes): 12 L/min |
| CC(=O)NC1(c2ccccc2)CCN(CC2CC2(C(=O)N(C)Cc2ccc(C)cc2)c2ccc(Cl)c(Cl)c2)CC1 (racemic) | 8.12 |  |
| CC(=O)NC1(c2ccccc2)CCN(CC2CC2(C(=O)N(C)Cc2ccccc2Cl)c2ccc(Cl)c(Cl)c2)CC1 (racemic) | 7.70 |  |
| CC(=O)NC1(c2ccccc2)CCN(CC2CC2(C(=O)N(C)Cc2ccccc2F)c2ccc(Cl)c(Cl)c2)CC1 (racemic) | 7.74 |  |
| CC(=O)NC1(c2ccccc2)CCN(CC2CC2(C(=O)N(C)Cc2ccccc2C)c2ccc(Cl)c(Cl)c2)CC1 (racemic) | 8.28 |  |
| COc1ccccc1CN(C)C(=O)C1(c2ccc(Cl)c(Cl)c2)CC1CN1CCC(NC(C)=O)(c2ccccc2)CC1 (racemic) | 7.85 |  |
| CC(=O)NC1(c2ccccc2)CCN(CC2CC2(C(=O)N(C)Cc2cccc(F)c2)c2ccc(Cl)c(Cl)c2)CC1 (racemic) | 7.92 |  |
| CC(=O)NC1(c2ccccc2)CCN(CC2CC2(C(=O)N(C)Cc2cccc(Cl)c2)c2ccc(Cl)c(Cl)c2)CC1 (racemic) | 7.62 |  |
| COc1cccc(CN(C)C(=O)C2(c3ccc(Cl)c(Cl)c3)CC2CN2CCC(NC(C)=O)(c3ccccc3)CC2)c1 (racemic) | 7.48 |  |
| CC(=O)NC1(c2ccccc2)CCN(CC2CC2(C(=O)N(C)Cc2cccc(C(F)(F)F)c2)c2ccc(Cl)c(Cl)c2)CC1 (racemic) | 7.30 |  |
| CC(=O)NC1(c2ccccc2)CCN(CC2CC2(C(=O)N(C)Cc2ccc(Cl)cc2)c2ccc(Cl)c(Cl)c2)CC1 (racemic) | 7.96 |  |
| COc1ccc(CN(C)C(=O)C2(c3ccc(Cl)c(Cl)c3)CC2CN2CCC(NC(C)=O)(c3ccccc3)CC2)cc1 (racemic) | 7.82 |  |
| CC(=O)NC1(c2ccccc2)CCN(CC2CC2(C(=O)N(C)Cc2ccc(C(F)(F)F)cc2)c2ccc(Cl)c(Cl)c2)CC1 (racemic) | 8.34 |  |
| CSc1ccc(CN(C)C(=O)C2(c3ccc(Cl)c(Cl)c3)CC2CN2CCC(NC(C)=O)(c3ccccc3)CC2)cc1 (racemic) | 7.55 |  |
| CC(=O)NC1(c2ccccc2)CCN(CC2CC2(C(=O)N(C)Cc2cccc(Cl)c2Cl)c2ccc(Cl)c(Cl)c2)CC1 (racemic) | 7.62 |  |
| CC(=O)NC1(c2ccccc2)CCN(CC2CC2(C(=O)N(C)Cc2ccc(Cl)cc2Cl)c2ccc(Cl)c(Cl)c2)CC1 (racemic) | 7.80 |  |
| CC(=O)NC1(c2ccccc2)CCN(CC2CC2(C(=O)N(C)Cc2ccc(Cl)c(Cl)c2)c2ccc(Cl)c(Cl)c2)CC1 (racemic) | 7.89 |  |
| CC(=O)NC1(c2ccccc2)CCN(CC2CC2(C(=O)N(C)Cc2cc(Cl)cc(Cl)c2)c2ccc(Cl)c(Cl)c2)CC1 (racemic) | 7.64 |  |
| COc1ccc(CN(C)C(=O)C2(c3ccc(Cl)c(Cl)c3)CC2CN2CCC(NC(C)=O)(c3ccccc3)CC2)c(OC)c1 (racemic) | 8.23 |  |
| COc1ccc(CN(C)C(=O)C2(c3ccc(Cl)c(Cl)c3)CC2CN2CCC(NC(C)=O)(c3ccccc3)CC2)cc1OC (racemic) | 7.17 |  |
| COc1cc(CN(C)C(=O)C2(c3ccc(Cl)c(Cl)c3)CC2CN2CCC(NC(C)=O)(c3ccccc3)CC2)cc(OC)c1 (racemic) | 7.49 |  |
| CC(=O)NC1(c2ccccc2)CCN(CC2CC2(C(=O)N(C)Cc2cccs2)c2ccc(Cl)c(Cl)c2)CC1 (racemic) | 7.15 |  |
| CC(=O)NC1(c2ccccc2)CCN(CC2CC2(C(=O)N(C)Cc2ccsc2)c2ccc(Cl)c(Cl)c2)CC1 (racemic) | 7.85 |  |
